{
  "source": "patent EP2271935B1",
  "about": "“METHOD AND KIT FOR THE EX VIVO EVALUATION OF THE RESPONSE OF A TUMOR TO CONDITIONS TO BE TESTED” (Universität Leipzig, priority 2008, dated 2009)",
  "tested_on": "epithelial cell line KB (DSMZ ACC 136)",
  "assay": "MTT assay of proliferation under varied riboflavin content and light exposure",
  "type": "cell-based, human",
  "description": "To address this question, three media, a) the RPMI 1640 without riboflavin and phenol red that is used in the method according to the invention and was manufactured according to our specifications by Biochrom, as well as two different RPMI 1640 charges purchased from Invitrogen which were each containing 532 nmol/L riboflavin, b) a phenol red-free (Gibco 11835), and c) a conventional RPMI 1640 (Gibco 21875) with 13.284 µmol/L phenol red. All media were supplemented with 2 mmol/L L-alanyl-1-glutamine as stabilized glutamine source (Biochrom K0302 Lot 0755 S) and the same amount of 10% (v/v) of heat-inactivated fetal calf serum (FCS) that was purchased from Invitrogen (Lot 41Q7554K) with a yield of 198 nmol/L riboflavin. […] These medium concentrations define the riboflavin concentrations in controls (see below).\nIn addition to the influences exerted by the different types of media alone, the riboflavin-dependent impact on the outcome of the docetaxel treatment was investigated. For this purpose 100 µl/well of docetaxel dilutions containing threefold the concentration indicated were added into the wells of microwell plates. The following seven docetaxel concentrations were tested: 19.38, 38.75, 77.5, 155, 310, 620, and 1,240 pmol/L.\nTo examine photoactivation-dependent riboflavin-mediated effects disturbing the outcome of ex-vivo chemoresponse-evaluation by conventional cell culture medium, and in particular in the absence of flavin-protecting experimental conditions, varying amounts of riboflavin were added. A stock solution of 200 µM (-)-riboflavin (CAS 83-68-5, Sigma R9504, FW=376.37 g/mol, purity >99%, cell culture tested) in phosphate buffered saline was diluted to adjust in each case the highest final concentration in culture (this means: after completion of the assay by addition of the other two components to the final assay volume of 300 µL) to exactly 10 µmol/L. Serial log10-dilutions were made from this concentration in each corresponding medium. These gave final concentrations in cell culture of 10.000, 1.018, 0.12, and 0.03 µmol/L in the case of medium a) (the medium according to the method of the invention), and concentrations of 10.000, 1.449, 0.594, and 0.508 µmol/L using media b) and c).\nIn general, each combination of riboflavin and docetaxel were tested in duplicate, and controls without additional riboflavin in quadruplicate for each experimental setting in the same 96-well plate. The experimental conditions were as follows: For each of the used media, two different plates were prepared simultaneously and either handled completely under flavin-protecting conditions (illumination only by sodium discharge lamps with an emission wavelength of 589 nm [i]), or in the same bench (Thermo MSC 12) with the installed light inside their working chamber switched on. The dilution of docetaxel and those of riboflavin in the particular medium were prepared for all four plates of each medium type prior to the other working steps under flavin-protecting conditions. Thus the administrations of these dilutions took about 20 min either under flavin-protecting conditions or illuminated conditions. After completed preparation of the plates that thereafter contained 200 µL of both diluted compounds, the plates were incubated 2 h in the incubator to allow for adjustment of the appropriate pH.\nIn between the stock culture of KB was harvested by trypsination of a 3-days stock culture (exponential growth phase). Stock cultures of KB cells always were grown without any antibiotic or antimycotic in phenol red- and riboflavin-free RPMI 1640 supplemented with 10% (v/v) FCS and were adapted to this medium for more than five passages. They were always handled at room temperature or warmer and were never exposed to light other than the light of a sodium discharge lamp with an emission wavelength of 589 nm for at least five passages. […]",
  "data": [
    {"smiles": "Cc1cc2nc3c(=O)[nH]c(=O)nc-3n(C[C@H](O)[C@H](O)[C@H](O)CO)c2cc1C", "note": "[riboflavin, (-)-riboflavin]", "values": [
      {"measurement": "toxicity of riboflavin to KB cells", "setting": "10 µmol/L riboflavin; plate 03, medium a), bench lighting below 30 min", "result": "complete die off of the KB cells"},
      {"measurement": "riboflavin concentrations leading to complete dying of all KB cells", "setting": "exposed to daylight 30 min (plates 02, 04, 06, 08, 10, and 12)", "result": "above 594 nmol/L"}
    ]}
  ]
}
